“Also recorded” adds a separate entry of the source.
What was measured:
C57BL/6 female mice = conditions: mouse, in vivo
tetanus toxin = test system: tetanus toxin; design: species or system mice; conditions: mouse, in vivo
human monocytes = assay: FACS analysis of human monocytes stimulated with AT1002; format: cell-based; conditions: 18 hours
human macrophages = assay: FACS analysis of human macrophages stimulated with AT1002; format: cell-based
[1] = AT1002 20 micrograms/ml and 1 microgram/ml

FCIGRL [AT1002]
geometric mean titers of anti-TT IgA in vaginal secretions (C57BL/6 female mice): induces IgA against the co-administered antigen in a mucosal district far from the site of immunization
geometric mean titers of anti-TT serum IgA (C57BL/6 female mice): induces serum IgA against the co-administered antigen
geometric mean titers of anti-TT serum IgG (C57BL/6 female mice): higher as compared to those of animals immunized with TT alone; also recorded: higher than those observed after four doses
relatively most effective AT1002 dose (anti-TT serum IgG) (C57BL/6 female mice): 30 nmol
protection against tetanus toxin challenge (paralysis and death) (tetanus toxin): all protected
expression of CD80 (B7-1) on monocytes (human monocytes): not upregulated
expression of CD86 (B7.2) on monocytes (human monocytes): not upregulated
membrane expression of HLA-DR on monocytes (human monocytes; [1]): upregulates
membrane expression of HLA-I on monocytes (human monocytes; [1]): upregulates
expression of CD40 on macrophages (human macrophages; 18 hours): upregulates
membrane expression of CD86 on macrophages (human macrophages; 18 hours): strongly upregulates
membrane expression of HLA-DR on macrophages (human macrophages; 18 hours): strongly upregulates
membrane expression of HLA-I on macrophages (human macrophages; 18 hours): strongly upregulates
expression of CD80 on macrophages (human macrophages; 18 hours, not reported in the figure): also upregulated
upregulation of HLA-I and HLA-DR molecules compared with LPS (human macrophages; macrophages, LPS positive control): more efficient than LPS

Tetanus toxoid [TT alone]
range of anti-TT IgG titer (tetanus toxin): 256-4,096

Source: patent US20060165722A1 (priority 2005, published 2006)
